Data: patent publication US20250051327A1, “MALT-1 MODULATORS” (EXSCIENTIA AI LIMITED, priority 2020, published 2025)

Test system: IL-2 secretion by human effector memory T cells (TEM)
Experiment: Effector memory T cells IL-2 release assay
Type: cell-based
Settings: T-cell; human CD4+ effector memory T cells, CD3/CD28 bead stimulation, 24 h; read-out: CD4TC IL2 IC50
Description: Effector Memory T Cells IL-2 Release Assay
Test compound-mediated inhibition of NFκB signalling in T cells was assessed by quantification of the IL-2 secretion by human effector memory T cells (TEM) upon treatment and stimulation. Human TEM cells were isolated from buffy coats of healthy donors obtained from the French blood bank. First, peripheral blood mononuclear cells (PBMC) were purified from buffy coats diluted 1:1 with DPBS (Gibco, cat #14190-094) by Pancoll (PAN BIOTECH, cat #P04-60500) density gradient centrifugation at 400×g for 20 minutes. TEM cells were further enriched by negative immuno-magnetic cell sorting using a human CD4+ Effector Memory T Cell Isolation Kit (Miltenyi, cat #130-094-125) according to the manufacturer's instructions. Aliquots of 3×10E6 purified TEM cells were kept frozen in Cryo-SFM medium (PromoCell, cat #C-29912) in gas phase nitrogen until used. Cell purity was verified by flow cytometry analysis of 200 000 PFA-fixed cells previously labelled with monoclonal antibodies anti-CD4-PerCP-Cy5.5 (BD Pharmigen, cat #332772), anti-CD8-V500 (BD Biosciences, cat #561617), anti-CD14-Pacific Blue (Biolegend, cat #325616), anti-CD45 RA-FITC (Biolegend, cat #304106) and anti-CCR7-APC (in CD4+ Effector Memory T Cell Isolation Kit, Miltenyi, cat #130-094-125).
TEM cells were resuspended in complete RPMI medium composed of: RPMI 1640 (Gibco, cat #31870-025), 10% heat inactivated fetal bovine serum (Sigma, cat #F7524), 2 mM GlutaMAX (Gibco, cat #35050-038), 1 mM sodium pyruvate 100× (Gibco, cat #11360-039), 1% MEM non-essential amino acids solution (Gibco, cat #11140-035) and 100 U/mL penicillin, 100 μg/mL streptomycin (Sigma-Aldrich, cat #11074440001). 5,000 cells per well were plated onto flat clear bottom 384 well plates (Corning, cat #3770). 5,000 Dynabeads Human T-Activator CD3/CD28 (Gibco, cat #11132D) were added to each well for cell stimulation. Finally, 10 doses of test compound, originally prepared in DMSO by serial semi-log step dilution, were also added to cells in triplicate wells. Final DMSO concentration in wells was 0.1% in a total volume of 100 μL complete medium. Plates were incubated for 24 h at 37° C. in 5% CO2 atmosphere. After incubation, cell suspensions were centrifuged at 400×g and culture supernatants were recovered and stored at −80° C. Cell viability was assessed by flow cytometry after staining the cells with Fixable Viability Dye eFluor 780 (Invitrogen, cat #65-0865-14). IL-2 levels were determined in cell supernatants using an HTRF human IL-2 detection kit (Cisbio, cat #62HIL02PEH). IL-2 data at the different compound doses were fitted to a 4-parameter logistic curve to determine IC50 values, corresponding to the compound concentration leading to 50% reduction of the maximal IL-2 levels observed in each experiment. Viability data were analysed similarly to exclude cytotoxicity as a cause of IL-2 decrease (see Table 1).

Row | Compound | IC50 [nM]
1 | COc1ccc2ncc(Nc3ccc([C@H](N(C)C(=O)C4CCS(=O)(=O)CC4)C(F)(F)F)cc3)c([C@H](C)OC)c2n1 (relative stereo) [CPD0019170, N-methyl-1,1-dioxo-N-[(1S)-2,2,2-trifluoro-1-[4-({6-methoxy-4-[(1 rel S)-1-methoxyethyl]-1,5-naphthyridin-3-yl}amino)phenyl]ethyl]-1λ^6-thiane-4-carboxamide] | 20
2 | COc1ccc2ncc(Nc3ccc([C@H](N(C)C(=O)C4CCS(=O)(=O)CC4)C(F)(F)F)cc3)c([C@@H](C)OC)c2n1 (relative stereo) [CPD0019171, N-methyl-1,1-dioxo-N-[(1S)-2,2,2-trifluoro-1-[4-({6-methoxy-4-[(1 rel R)-1-methoxyethyl]-1,5-naphthyridin-3-yl}amino)phenyl]ethyl]-1λ^6-thiane-4-carboxamide] | 110
3 | COc1ccc2ncc(Nc3ccc([C@H](N(C)C(=O)[C@H]4CC[S@@+]([O-])CC4)C(F)(F)F)cc3)c([C@H](C)OC)c2n1 (relative stereo) [CPD0072935, (1rel-s,4rel-s)-N-methyl-1-oxo-N-[(1S)-2,2,2-trifluoro-1-[4-({6-methoxy-4-[(1 rel-S)-1-methoxyethyl]-1,5-naphthyridin-3-yl}amino)phenyl]ethyl]-1λ^4-thiane-4-carboxamide] | 34
4 | COc1ccc2ncc(Nc3ccc([C@H](N(C)C(=O)[C@H]4CC[S@+]([O-])CC4)C(F)(F)F)cc3)c([C@H](C)OC)c2n1 (relative stereo) [CPD0072936, (1rel-r,4rel-r)-N-methyl-1-oxo-N-[(1S)-2,2,2-trifluoro-1-[4-({6-methoxy-4-[(1 rel-S)-1-methoxyethyl]-1,5-naphthyridin-3-yl}amino)phenyl]ethyl]-1λ^4-thiane-4-carboxamide] | 17
5 | COc1ccc2ncc(Nc3ccc([C@H](N(C)C(=O)C4CCS(=O)(=O)CC4)C(F)(F)F)cc3)c([C@H]3CCCO3)c2n1 (relative stereo) [CPD0074043, N-methyl-1,1-dioxo-N-[(1S)-2,2,2-trifluoro-1-[4-[6-methoxy-4-[(2 rel-R)-tetrahydrofuran-2-yl]-1,5-naphthyridin-3-yl]amino]phenyl]ethyl]thiane-4-carboxamide] | 80
6 | COc1ccc2ncc(Nc3ccc([C@H](N(C)C(=O)[C@@H]4CNC(=O)C4)C(F)(F)F)cc3)c([C@H](C)OC)c2n1 (relative stereo) [CPD0074550, (3 rel S)-N-methyl-5-oxo-N-[(1S)-2,2,2-trifluoro-1-[4-[6-methoxy-4-[(1 rel S)-1-methoxyethyl]-1,5-naphthyridin-3-yl]amino]phenyl]ethyl]pyrrolidine-3-carboxamide] | 41
7 | C[C@H]1CCN(c2ccc([C@H](N(C)C(=O)[C@H]3CC[S@](=N)(=O)CC3)C(F)(F)F)cc2)c2cnc3cc(F)nn3c21 (relative stereo) [CPD0074553, (1rel s, 4rel s)1-imino-N-methyl-1-oxo-N-[(1S)-2,2,2-trifluoro-1-[4-[(13 rel S)-4-fluoro-13-methyl-2,3,7,10-tetrazatricyclo[7.4.0.0^2,6]trideca-1(9),3,5,7-tetraen-10-yl]phenyl]ethyl]thiane-4-carboxamide] | 162
8 | C[C@H]1CCN(c2ccc([C@H](N(C)C(=O)[C@H]3CC[S@@](=N)(=O)CC3)C(F)(F)F)cc2)c2cnc3cc(F)nn3c21 (relative stereo) [CPD0074554, (1rel r, 4rel r)1-imino-N-methyl-1-oxo-N-[(1S)-2,2,2-trifluoro-1-[4-[(13 rel S)-4-fluoro-13-methyl-2,3,7,10-tetrazatricyclo[7.4.0.0^2,6]trideca-1(9),3,5,7-tetraen-10-yl]phenyl]ethyl]thiane-4-carboxamide] | 170
9 | COc1ccc2ncc(Nc3ccc([C@H](N(C)C(=O)C4CCN(C(C)=O)CC4)C(F)(F)F)cc3)c([C@H](C)OC)c2n1 (relative stereo) [CPD0074559, 1-acetyl-N-methyl-N-[(1S)-2,2,2-trifluoro-1-[4-[6-methoxy-4-[(1 rel S)-1-methoxyethyl]-1,5-naphthyridin-3-yl]amino]phenyl]ethyl]piperidine-4-carboxamide] | 27
10 | COc1ccc2ncc(Nc3ccc([C@H](N(C)C(=O)[C@H]4CNC(=O)C4)C(F)(F)F)cc3)c([C@H](C)OC)c2n1 (relative stereo) [CPD0074562, (3 rel R)-N-methyl-5-oxo-N-[(1S)-2,2,2-trifluoro-1-[4-[[6-methoxy-4-[(1 rel S)-1-methoxyethyl]-1,5-naphthyridin-3-yl]amino]phenyl]ethyl]pyrrolidine-3-carboxamide] | 68
11 | COc1ccc2ncc(Nc3ccc([C@H](N(C)C(=O)[C@@H]4CCC(=O)N4)C(F)(F)F)cc3)c([C@H](C)OC)c2n1 (relative stereo) [CPD0075580, (2 rel S)-N-methyl-5-oxo-N-[(1S)-2,2,2-trifluoro-1-[4-[[6-methoxy-4-[(1 rel S)-1-methoxyethyl]-1,5-naphthyridin-3-yl]amino]phenyl]ethyl]pyrrolidine-2-carboxamide] | 35
12 | COc1ccc2ncc(Nc3ccc([C@H](N(C)C(=O)[C@H]4CCC(=O)N4)C(F)(F)F)cc3)c([C@H](C)OC)c2n1 (relative stereo) [CPD0075581, (2 rel R)-N-methyl-5-oxo-N-[(1S)-2,2,2-trifluoro-1-[4-[6-methoxy-4-[(1 rel S)-1-methoxyethyl]-1,5-naphthyridin-3-yl]amino]phenyl]ethyl]pyrrolidine-2-carboxamide] | 29
13 | COc1ccc2ncc(Nc3ccc([C@H](N(C)C(=O)C4CCS(=O)(=O)CC4)C(F)(F)F)cn3)c(C(C)OC)c2n1 (stereo partly drawn) [CPD0019007] | 115
14 | COc1ccc2ccc(Nc3ccc([C@H](N(C)C(=O)C4CCS(=O)(=O)CC4)C(F)(F)F)cc3)cc2n1 [CPD0019078, N-methyl-1,1-dioxo-N-[(1S)-2,2,2-trifluoro-1-{4-[(2-methoxyquinolin-7-yl)amino]phenyl}ethyl]-16-thiane-4-carboxamide] | 108
15 | CN(C(=O)C1CCS(=O)(=O)CC1)[C@@H](c1ccc(N2CCCc3c2cnc2cc(Cl)nn32)nc1)C(F)(F)F [CPD0019212, N-[(1S)-1-(6-{4-chloro-2,3,7,10-tetraazatricyclo[7.4.0.0^2,6]trideca-1(9),3,5,7-tetraen-10-yl}pyridin-3-yl)-2,2,2-trifluoroethyl]-N-methyl-1,1-dioxo-1λ^6-thiane-4-carboxamide] | 452
16 | CN(C(=O)C1CCS(=O)(=O)CC1)[C@@H](c1ccc(N2CCC3(CC3)c3c2cnc2cc(Cl)nn32)cc1)C(F)(F)F [CPD0019590, N-[(1S)-1-(4-{4′-chloro-2′,3′,7′, 10′-tetraazaspiro[cyclopropane-1,13′-tricyclo[7.4.0.0^2,6]tridecane]-1′(9′),3′,5′,7′-tetraen-10′-yl}phenyl)-2,2,2-trifluoroethyl]-N-methyl-1,1-dioxo-1λ^6-thiane-4-carboxamide] | 37
17 | CN(C(=O)C1CCS(=O)(=O)CC1)[C@@H](c1ccc(N2CCC3(CC3)c3c2cnc2cc(Cl)nn32)nc1)C(F)(F)F [CPD0021660, N-[(1S)-1-(6-{4′-chloro-2′,3′,7′,10′-tetraazaspiro[cyclopropane-1,13′-tricyclo[7.4.0.0^2,6]tridecane]-1′(9′),3′,5′,7′-tetraen-10′-yl}pyridin-3-yl)-2,2,2-trifluoroethyl]-N-methyl-1,1-dioxo-1λ^6-thiane-4-carboxamide] | 112
18 | CN(C(=O)C1CCS(=O)(=O)CC1)[C@@H](c1ccc(N2CC3(CC3)Cc3c2cnc2cc(Cl)nn32)cc1)C(F)(F)F [CPD0022148, N-[(1S)-1-(4-{4′-chloro-2′,3′,7′,10′-tetraazaspiro[cyclopropane-1,12′-tricyclo[7.4.0.0^2,6]tridecane]-1′(9′),3′,5′,7′-tetraen-10′-yl}phenyl)-2,2,2-trifluoroethyl]-N-methyl-1,1-dioxo-1λ^6-thiane-4-carboxamide] | 116
